Experimental findings from EP4222493B1, “SCREENING TEST FOR CATSPER MODULATORS” (Westfälische Wilhelms-Universität Münster, priority 2020, dated 2022) are described below.

The target in this test is T1, CatSper channel (Homo sapiens, UniProt Q7RTX7+Q86XQ3+Q8NEC5+Q96P56).
T1 construct: endogenous in cells; host or cells: Sperm cells in untreated ejaculate from a healthy volunteer
The experiment in a line: CatSper modulation test: sperm motility in a test solution essentially free of free calcium, determined by light microscopy. The following applies: for motility: after about 10 minutes, normalized (first reading in the Ca2+-containing control = 100%). Type of test: cell-based. The protocol: • Fig. 1: Time course of sperm motility in the CatSper modulation test. […] Sperm cells were exposed to a calcium-free buffer (grey curves) containing different concentrations of the exemplified CatSper inhibitor RU1968 at time t = 0 minutes up to t = 90 minutes. A control sample (black, HTF) was kept under Ca^2+-containing conditions. During a subsequent incubation at 37 °C, the motility in the sperm population was determined by light microscopy; the data was normalized (first reading in the Ca^2+-containing control = 100%).
The Ca^2+-containing solution being used in Figure 1 of the present invention corresponds to the HTF buffer (human tubular fluid) used for years in research with spermatozoa (Strünker et al. 2011, Nature 471, 382-386). The calcium-free solution is also based on this buffer. It is very likely that the test can also be carried out with buffer solutions of a different composition, as long as they are kept in the physiological range and comprise the herein mentioned ranges or values for calcium and magnesium. Table 1: Composition of the Ca2+-containing and the Ca2+-free solutions being used in the method of the present invention.
For performing a CatSper-Screening-Test, 178 µl of the calcium-free solution and 2 µl of the solvent used to prepare the test compound solution is used to produce the control solution (calcium-free solution without any test compound). A test solution is produced by adding 178 µl of the calcium-free solution and 2 µl of the test compound solution together. Optionally, another 180 µl of the calcium-containing solution (without any test compound) may further be used in another vial (see particular composition above in Tab. 1). The solutions are then stored at 4 °C and heated to 37 °C before use to warm up the solutions.
A spermatozoa (semen) sample is then obtained from a subject who is a healthy volunteer. A volume of 20 µl of the ejaculate is added to the calcium-free control, calcium-free test and calcium-containing solutions in each micro reaction tube. By low-speed vortex mixing or repeatedly inverting the micro reaction tubes, a homogeneous spermatozoa suspension is generated. Both micro reaction tubes are then incubated at 37 °C for 15 min. After incubation, the mixing step is repeated and the spermatozoa motility is determined for the conditions by counting a total number of 200 sperm cells. The fraction of motile sperm is then compared for the calcium-free control solution with and without any test compound. If a difference in the fraction of motile sperm is determined the test compound is identified as inhibitor / activator or no modulator of the CatSper activity.

For the molecule `C[C@@H](NCCN(C)C)[C@@H]1CC[C@@H]2[C@H]3CCc4cc(O)ccc4[C@@H]3CC[C@]21C` [RU1968], the motility result by setting is: (3 µM inhibitor in Ca2+-free buffer, 37 °C, Fig. 2) “about 106%”; (6 µM inhibitor in Ca2+-free buffer, 37 °C, Fig. 2) around 110%; (12 µM inhibitor in Ca2+-free buffer, 37 °C, Fig. 2) “about 116%”. Further, the “behaviour of sperm cells from healthy volunteers in the CatSper-Screening-Test” value (30 µM, calcium-free solution, Fig. 1) is listed as “behave in the same way as sperm from patients with CatSper dysfunction”. The “sperm cell motility under essentially Ca2+-free conditions” value (different concentrations, t = 0 minutes up to t = 90 minutes, 37 °C, Fig. 2) is “modulates the sperm cell motility in a concentration-dependent manner”.

Consider `CC(=O)[C@H]1CC[C@H]2[C@@H]3CCC4=CC(=O)CC[C@]4(C)[C@H]3CC[C@]12C` [Progesterone, progesterone], for which, where the note is “10 µM, calcium-free solution, Fig. 1”, the “effect on CatSper ion channel activity in the CatSper-Screening-Test” value is reported as “activates CatSper ion channel activity”.
